One may read the EC50 as the concentration needed to bring the measured effect to its halfway point.

Here are results for 19 molecules from patent publication US9637520B2, “Template-fixed peptidomimetics with CXCR7 modulating activity” (POLYPHOR AG, priority 2010, dated 2017).

Starred links: 1 amine or outer side, 2 acyl side, 3 side chain; linkers in the order of their positions; H or OH if unused. Non-standard residues stand in square brackets, D forms with d. Residues, ends and D or L forms follow the SMILES beside them. *: point of attachment. Phe(4-CF3) = N[C@@H](Cc1ccc(C(F)(F)F)cc1)C(=O)O; dPro(cis-4-NH2) = N[C@H]1CN[C@@H](C(=O)O)C1; X4 = Cn1ccnc1CNCCC[C@H](N[*:1])C(=O)[*:2]; dPro(4S-NH2) = N[C@@H]1CN[C@@H](C(=O)O)C1; 2Nal = N[C@@H](Cc1ccc2ccccc2c1)C(=O)O; Pro(3S-OH) = O=C(O)[C@H]1NCC[C@@H]1O; cisHyp = O=C(O)[C@@H]1C[C@H](O)CN1; Tic = O=C(O)[C@@H]1Cc2ccccc2CN1; dTic = O=C(O)[C@H]1Cc2ccccc2CN1; 2Pyrimidinyl = c1cnc(*)nc1; dOrn = NCCC[C@@H](N)C(=O)O; dDab = NCC[C@@H](N)C(=O)O; dPip = O=C(O)[C@H]1CCCCN1; Orn = NCCC[C@H](N)C(=O)O; Bn = c1ccc(C*)cc1

T1 sequence (P25106 whole entry): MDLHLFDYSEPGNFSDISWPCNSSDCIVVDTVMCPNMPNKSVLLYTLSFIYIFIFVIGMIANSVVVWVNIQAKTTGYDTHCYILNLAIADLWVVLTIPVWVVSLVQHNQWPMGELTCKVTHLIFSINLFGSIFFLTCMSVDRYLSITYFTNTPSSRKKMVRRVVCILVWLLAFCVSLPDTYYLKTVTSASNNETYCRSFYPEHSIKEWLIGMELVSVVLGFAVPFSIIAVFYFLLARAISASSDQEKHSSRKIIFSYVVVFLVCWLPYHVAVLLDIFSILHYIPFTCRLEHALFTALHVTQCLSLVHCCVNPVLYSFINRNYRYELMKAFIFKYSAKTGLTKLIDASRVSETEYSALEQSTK

The test concerns the target T1, CXCR7 (Homo sapiens, UniProt P25106).
T1 construct: host or cells: CHO (PathHunter CHO-CXCR7 β-arrestin cells)
In words: CXCR7 β-arrestin recruitment assay (PathHunter CHO-CXCR7, DiscoverX), agonistic assay. The class given is cell-based. Conditions: agonistic assay; CHO CXCR7 β-arrestin cells; 90 min at 37° C.; chemiluminescence; read-out: β-Arrestin EC50. How it is done: Lyophilized peptides were weighed on a Microbalance (Mettler MX5) and dissolved in DMSO to a final concentration of 10 mM unless otherwise stated. Stock solutions were kept at +4° C., and protected from light.
2.2 CXCR7 β-Arrestin Recruitment Assay
The PathHunter CHO-CXCR7 (DiscoverX) assay was performed according to the manufacturer's protocol. In brief, CHO CXCR7 β-arrestin cells were seeded at a density of 5000 cells per well in 40 μl of F12 medium in black 96-half volume well culture plates and incubated overnight at 37° C. in a humidified atmosphere with 5% CO2. The next day, serial dilutions of PEM compounds have been prepared in DMSO and subsequently diluted in HBSS buffer containing 0.1% BSA.
For agonistic assay, 10 μl of compound solution or a solution of stromal cell-derived factor-1 (SDF-1) as positive control was added to the cells with a final DMSO concentration of 1% (v/v). The plate was incubated for 90 min at 37° C. in 5% CO2 incubator with gentle shaking (300 rpm) before addition of 40 μl of detection reagent per well. Reaction was developed for 90 min at room temperature in the dark with shaking, and chemiluminescence was measured with a Topcount (Perkin Elmer) luminescence counter.
On the technique in general: Recruitment of arrestin is a read-out of receptor activation apart from second messengers.
As to `NCCC[C@@H]1NC(=O)[C@H](Cc2c[nH]c3ccccc23)NC(=O)[C@@H](Cc2ccccc2)NC(=O)[C@H](Cc2c[nH]c3ccccc23)NC(=O)[C@@H]2Cc3ccccc3CN2C(=O)[C@H]2C[C@@H](N)CN2C1=O` [Ex. 29, cyclo(-Trp-^DPhe-Trp-Orn-^DPro((4R)NH2)-Tic-)] (cyclo([Orn][dPro(cis-4-NH2)][Tic]W[dF]W)), the EC50 was 26.1 ± 16.7 nM.

As for `CC[C@H](C)[C@@H]1NC(=O)[C@H]([C@@H](C)O)NC(=O)[C@H]2CCCN2C(=O)[C@H](Cc2c[nH]c3ccccc23)NC(=O)[C@H](CCCNC(=N)N)NC(=O)[C@@H](CCCN)NC1=O` [compound 63, cyclo(-Ile-^DOrn-Arg-Trp-^DPro-Thr-)] (cyclo(I[dOrn]RW[dP]T)), the concentration for a half-maximal effect (EC50) was found to be 23.3 ± 7.3 nM.

For the molecule `CC[C@H](C)[C@@H]1NC(=O)[C@H]([C@@H](C)O)NC(=O)[C@H]2Cc3ccccc3CN2C(=O)[C@H](Cc2c[nH]c3ccccc23)NC(=O)[C@H](CCCNC(=N)N)NC(=O)[C@@H](CCCNC(=N)N)NC1=O` [compound 67, cyclo(-Ile-^DArg-Arg-Trp-^DTic-Thr-)] (cyclo(I[dR]RW[dTic]T)), the concentration giving a half-maximal response (EC50) worked out at 14.2 ± 5.2 nM.

Consider `N=C(N)NCCC[C@@H]1NC(=O)[C@H](Cc2c[nH]c3ccccc23)NC(=O)[C@@H](Cc2ccccc2)NC(=O)[C@H](Cc2c[nH]c3ccccc23)NC(=O)[C@@H]2Cc3ccccc3CN2C(=O)[C@H]2C[C@H](N)CN2C1=O` [Ex. 25, cyclo(-Trp-^DPhe-Trp-Arg-^DPro((4S)NH2)-Tic-)] (cyclo(R[dPro(4S-NH2)][Tic]W[dF]W)), for which the EC50 worked out at 17.5 ± 12.2 nM.

With `N=C(N)NCCC[C@@H]1NC(=O)[C@H](Cc2c[nH]c3ccccc23)NC(=O)[C@@H](Cc2ccccc2)NC(=O)[C@H](CCCNc2ncccn2)NC(=O)[C@@H]2Cc3ccccc3CN2C(=O)[C@H]2C[C@@H](N)CN2C1=O` [Ex. 76, cyclo(-Orn(Ar2)-^DPhe-Trp-Arg-^DPro((4R)NH2)-Tic-)] (cyclo([Orn](2Pyrimidinyl)[dF]WR[dPro(cis-4-NH2)][Tic])), the half-maximal effective concentration (EC50) stood at 209 ± 6.6 nM.

For the molecule `N[C@@H]1C[C@@H]2C(=O)N3Cc4ccccc4C[C@H]3C(=O)N[C@@H](Cc3c[nH]c4ccccc34)C(=O)N[C@H](Cc3ccccc3)C(=O)N[C@@H](Cc3c[nH]c4ccccc34)C(=O)N[C@@H](Cc3c[nH]cn3)C(=O)N2C1` [compound 32, cyclo(-Trp-^DPhe-Trp-His-^DPro((4R)NH2)-Tic-)] (cyclo(H[dPro(cis-4-NH2)][Tic]W[dF]W)), the EC50 came out at 20.4 ± 6.6 nM.

For the molecule `CC[C@H](C)[C@@H]1NC(=O)[C@H]([C@@H](C)O)NC(=O)[C@H]2CCCN2C(=O)[C@H](Cc2c[nH]c3ccccc23)NC(=O)[C@H](CCCCN)NC(=O)[C@@H](CCCNC(=N)N)NC1=O` [compound 3, cyclo(-Ile-^DArg-Lys-Trp-^DPro-Thr-)] (cyclo(I[dR]KW[dP]T)), the EC50 came to 78.7 ± 115 nM.

On to `CC[C@H](C)[C@@H]1NC(=O)[C@@H]2[C@@H](O)CCN2C(=O)[C@H]2CCCN2C(=O)[C@H](Cc2ccc3ccccc3c2)NC(=O)[C@H](CCCNC(=N)N)NC(=O)[C@@H](CCCNC(=N)N)NC1=O` [compound 53, cyclo(-Ile-^DArg-Arg-2Nal-^DPro-Pro((3S)OH)—)] (cyclo([2Nal][dP][Pro(3S-OH)]I[dR]R)), for which the EC50 came out at 76.8 ± 47.9 nM.

`CC[C@H](C)[C@@H]1NC(=O)[C@H]([C@@H](C)O)NC(=O)[C@H]2CCCN2C(=O)[C@H](Cc2c[nH]c3ccccc23)NC(=O)[C@H](CCCNCc2nccn2C)NC(=O)[C@@H](CCCNC(=N)N)NC1=O` [Ex. 69, cyclo(-Ile-^DArg-Orn(Ar7)-Trp-^DPro-Thr-)] (cyclo(I[dR][X4]W[dP]T)): the EC50 stood at 337 ± 92.6 nM.

As for `CC[C@H](C)[C@@H]1NC(=O)[C@H]([C@@H](C)O)NC(=O)[C@H]2CCCN2C(=O)[C@H](Cc2ccc(C(F)(F)F)cc2)NC(=O)[C@H](CCCNC(=N)N)NC(=O)[C@@H](CCCNC(=N)N)NC1=O` [Ex. 72, cyclo(-Ile-^DArg-Arg-Phe(4CF3)-^DPro-Thr-)] (cyclo(I[dR]R[Phe(4-CF3)][dP]T)), the EC50 amounted to 4.5 ± 1.1 nM.

Regarding `N=C(N)NCCC[C@@H]1NC(=O)[C@@H]2C[C@H](OCc3ccccc3)CN2C(=O)[C@H]2CCCN2C(=O)[C@H](CCCNC(=N)N)NC(=O)[C@H](Cc2c[nH]c3ccccc23)NC(=O)[C@@H](Cc2ccccc2)NC1=O` [Ex. 48, cyclo(-Arg-^DPhe-Trp-Arg-^DPro-(4S)-Hyp(Bn)-)] (cyclo(R[dF]WR[dP][cisHyp](Bn))), the half-maximal effective concentration (EC50) was determined as 76.9 ± 24.7 nM.

Take `CC[C@H](C)[C@@H]1NC(=O)[C@@H]2[C@@H](O)CCN2C(=O)[C@H]2CCCN2C(=O)[C@H](Cc2c[nH]c3ccccc23)NC(=O)[C@H](CCCNC(=N)N)NC(=O)[C@@H](CCCNC(=N)N)NC1=O` [Ex. 21, cyclo(-Ile-^DArg-Arg-Trp-^DPro-Pro((3S)OH)—)] (cyclo(I[dR]RW[dP][Pro(3S-OH)])): the half-maximal effective concentration (EC50) was found to be 123 ± 85.2 nM.

In the case of `CC[C@H](C)[C@@H]1NC(=O)[C@H]([C@@H](C)O)NC(=O)[C@H]2CCCN2C(=O)[C@H](Cc2ccccc2)NC(=O)[C@H](CCCNC(=N)N)NC(=O)[C@@H](CCCNC(=N)N)NC1=O` [Ex. 6, cyclo(-Ile-^DArg-Arg-Phe-^DPro-Thr-)] (cyclo(F[dP]TI[dR]R)), the EC50 came out at 46.4 ± 57.9 nM.

In the case of `CC(C)[C@@H]1NC(=O)[C@H]([C@@H](C)O)NC(=O)[C@H]2CCCN2C(=O)[C@H](Cc2c[nH]c3ccccc23)NC(=O)[C@H](CCCNC(=N)N)NC(=O)[C@@H](CCCNC(=N)N)NC1=O` [compound 57, cyclo(-Val-^DArg-Arg-Trp-^DPro-Thr-)] (cyclo(RW[dP]TV[dR])), the EC50 stood at 271 ± 0.2 nM.

As for `CC[C@H](C)[C@@H]1NC(=O)[C@H]([C@@H](C)O)NC(=O)[C@H]2CCCN2C(=O)[C@H](Cc2c[nH]c3ccccc23)NC(=O)[C@H](CCCNC(=N)N)NC(=O)[C@@H]([C@H](C)O)NC1=O` [Ex. 7, cyclo(-Ile-^DThr-Arg-Trp-^DPro-Thr-)] (cyclo(I[dT]RW[dP]T)), the EC50 came out at 53.2 ± 35.8 nM.

As for `CC[C@H](C)[C@@H]1NC(=O)[C@H]([C@@H](C)O)NC(=O)[C@H]2CCCN2C(=O)[C@H]([C@@H](C)CC)NC(=O)[C@H](CCCNC(=N)N)NC(=O)[C@@H](CCCNC(=N)N)NC1=O` [Ex. 1, cyclo(-Ile-^DArg-Arg-Ile-^DPro-Thr-)] (cyclo(I[dP]TI[dR]R)), the concentration for a half-maximal effect (EC50) was found to be 79.7 ± 99.7 nM.

For the molecule `CC[C@H](C)[C@@H]1NC(=O)[C@@H]2[C@@H](O)CCN2C(=O)[C@H]2CCCCN2C(=O)[C@H](Cc2c[nH]c3ccccc23)NC(=O)[C@H](CCCNC(=N)N)NC(=O)[C@@H](CCCNC(=N)N)NC1=O` [Ex. 54, cyclo(-Ile-^DArg-Arg-Trp-^DPip-Pro((3S)OH)—)] (cyclo(I[dR]RW[dPip][Pro(3S-OH)])), the EC50 was 8.2 ± 3.4 nM.

With `N=C(N)NCCC[C@@H]1NC(=O)[C@@H]2Cc3ccccc3CN2C(=O)[C@H]2C[C@@H](N)CN2C(=O)[C@H](CCCNC(=N)N)NC(=O)[C@H](Cc2c[nH]c3ccccc23)NC(=O)[C@@H](Cc2ccccc2)NC1=O` [compound 33, cyclo(-Arg-^DPhe-Trp-Arg-^DPro((4R)NH2)-Tic-)] (cyclo(R[dF]WR[dPro(cis-4-NH2)][Tic])), the EC50 was 248 ± 16.5 nM.

With `CC[C@H](C)[C@@H]1NC(=O)[C@H]([C@@H](C)O)NC(=O)[C@H]2CCCN2C(=O)[C@H](Cc2c[nH]c3ccccc23)NC(=O)[C@H](CCCNC(=N)N)NC(=O)[C@@H](CCN)NC1=O` [Ex. 5, cyclo(-Ile-^DDab-Arg-Trp-^DPro-Thr-)] (cyclo(I[dDab]RW[dP]T)), the 50% effective concentration (EC50) was 48.4 ± 67.5 nM.
